Test: xn = mol fraction of the nth substance listed
Settings: 101 kPa, Liquid, Pycnometric method

C=CC(=O)OCCCC [butyl 2-propenoate] + Cc1ccccc1
mass density [kg/m3]
Settings	288.15 K	293.15 K	298.15 K	303.15 K	308.15 K	313.15 K	318.15 K
x1 = 0.0704	875.4	870.63	865.86	861.09	856.32	851.55	846.79
x1 = 0.1402	878.72	873.92	869.12	864.32	859.52	854.72	849.92
x1 = 0.2054	881.63	876.8	871.97	867.14	862.31	857.48	852.65
x1 = 0.2799	884.72	879.86	875	870.15	865.31	860.47	855.63
x1 = 0.3604	887.81	882.94	878.07	873.2	868.34	863.48	858.62
x1 = 0.4338	890.4	885.52	880.64	875.77	870.9	866.03	861.16
x1 = 0.5098	892.88	888	883.12	878.24	873.36	868.48	863.6
x1 = 0.5836	895.08	890.19	885.31	880.43	875.55	870.67	865.79
x1 = 0.6584	897.1	892.22	887.34	882.46	877.58	872.7	867.82
x1 = 0.7198	898.6	893.73	888.86	883.99	879.12	874.25	869.38
x1 = 0.7912	900.18	895.32	890.46	885.6	880.75	875.9	871.05
x1 = 0.8578	901.48	896.64	891.8	886.96	882.12	877.28	872.44
x1 = 0.9324	902.74	897.93	893.12	888.31	883.5	878.69	873.88
x1 = 1	903.6	898.85	894.1	889.35	884.6	879.85	875.1

C=CC(=O)OCCCC [butyl 2-propenoate] + Cc1ccccc1C
mass density [kg/m3]
Settings	288.15 K	293.15 K	298.15 K	303.15 K	308.15 K	313.15 K	318.15 K
x1 = 0.0685	885.81	881.5	877.19	872.88	868.57	864.26	859.95
x1 = 0.1306	887.32	882.97	878.62	874.27	869.92	865.57	861.22
x1 = 0.2018	889	884.6	880.2	875.8	871.41	867.02	862.63
x1 = 0.2738	890.63	886.19	881.75	877.31	872.87	868.44	864.01
x1 = 0.3654	892.61	888.12	883.63	879.14	874.65	870.17	865.69
x1 = 0.4331	894.01	889.49	884.97	880.45	875.93	871.41	866.89
x1 = 0.5072	895.49	890.93	886.37	881.81	877.25	872.7	868.14
x1 = 0.589	897.05	892.45	887.85	883.25	878.65	874.06	869.47
x1 = 0.6522	898.2	893.57	888.94	884.31	879.68	875.06	870.44
x1 = 0.7283	899.51	894.85	890.19	885.53	880.87	876.21	871.55
x1 = 0.7924	900.56	895.87	891.18	886.49	881.8	877.12	872.44
x1 = 0.8587	901.6	896.88	892.16	887.45	882.74	878.03	873.32
x1 = 0.9298	902.64	897.9	893.16	888.42	883.69	878.96	874.23
x1 = 1	903.6	898.85	894.1	889.35	884.6	879.85	875.1

C=CC(=O)OCCCC [butyl 2-propenoate] + c1ccccc1
mass density [kg/m3]
Settings	288.15 K	293.15 K	298.15 K	303.15 K	308.15 K	313.15 K	318.15 K
x1 = 0.0722	887.23	881.89	876.56	871.23	865.9	860.57	855.24
x1 = 0.142	889.79	884.48	879.17	873.86	868.56	863.26	857.96
x1 = 0.2062	891.94	886.65	881.36	876.08	870.8	865.52	860.24
x1 = 0.2794	894.12	888.87	883.62	878.37	873.12	867.87	862.62
x1 = 0.3586	896.24	891.02	885.8	880.58	875.36	870.14	864.92
x1 = 0.4363	898.02	892.83	887.64	882.46	877.28	872.1	866.92
x1 = 0.5074	899.4	894.25	889.11	883.97	878.83	873.69	868.55
x1 = 0.5818	900.63	895.53	890.43	885.33	880.23	875.13	870.03
x1 = 0.6423	901.47	896.4	891.33	886.26	881.2	876.14	871.08
x1 = 0.7226	902.36	897.34	892.32	887.3	882.29	877.28	872.27
x1 = 0.7902	902.91	897.94	892.97	888	883.03	878.07	873.11
x1 = 0.8563	903.29	898.38	893.47	888.56	883.65	878.75	873.85
x1 = 0.9305	903.53	898.69	893.85	889.01	884.18	879.35	874.52
x1 = 1	903.6	898.85	894.1	889.35	884.6	879.85	875.1
